For 6 compounds, IC50 results are on record in US8623860B2, “Azetidine derivatives, pharmaceutical compositions and uses thereof” (Boehringer Ingelheim International GmbH, priority 2011, dated 2014).

Structures are written as SMILES.

This experiment concerns the target human ACC2 (Homo sapiens (Human), UniProt O00763). The experiment in a line: ACC2 assay, spectrophotometric 384 well assay (NADH-linked, coupled lactate dehydrogenase/pyruvate kinase reaction). It is filed as biochemical. The settings on record: hACC2 construct lacking the 128 N-terminal amino acids; 25° C., 340 nm, 15 minutes.

As usually defined, the IC50 is the concentration needed to halve the response being measured. Low values mean greater potency, high ones weaker potency.

Sequence of human ACC2 (O00763 129-2458): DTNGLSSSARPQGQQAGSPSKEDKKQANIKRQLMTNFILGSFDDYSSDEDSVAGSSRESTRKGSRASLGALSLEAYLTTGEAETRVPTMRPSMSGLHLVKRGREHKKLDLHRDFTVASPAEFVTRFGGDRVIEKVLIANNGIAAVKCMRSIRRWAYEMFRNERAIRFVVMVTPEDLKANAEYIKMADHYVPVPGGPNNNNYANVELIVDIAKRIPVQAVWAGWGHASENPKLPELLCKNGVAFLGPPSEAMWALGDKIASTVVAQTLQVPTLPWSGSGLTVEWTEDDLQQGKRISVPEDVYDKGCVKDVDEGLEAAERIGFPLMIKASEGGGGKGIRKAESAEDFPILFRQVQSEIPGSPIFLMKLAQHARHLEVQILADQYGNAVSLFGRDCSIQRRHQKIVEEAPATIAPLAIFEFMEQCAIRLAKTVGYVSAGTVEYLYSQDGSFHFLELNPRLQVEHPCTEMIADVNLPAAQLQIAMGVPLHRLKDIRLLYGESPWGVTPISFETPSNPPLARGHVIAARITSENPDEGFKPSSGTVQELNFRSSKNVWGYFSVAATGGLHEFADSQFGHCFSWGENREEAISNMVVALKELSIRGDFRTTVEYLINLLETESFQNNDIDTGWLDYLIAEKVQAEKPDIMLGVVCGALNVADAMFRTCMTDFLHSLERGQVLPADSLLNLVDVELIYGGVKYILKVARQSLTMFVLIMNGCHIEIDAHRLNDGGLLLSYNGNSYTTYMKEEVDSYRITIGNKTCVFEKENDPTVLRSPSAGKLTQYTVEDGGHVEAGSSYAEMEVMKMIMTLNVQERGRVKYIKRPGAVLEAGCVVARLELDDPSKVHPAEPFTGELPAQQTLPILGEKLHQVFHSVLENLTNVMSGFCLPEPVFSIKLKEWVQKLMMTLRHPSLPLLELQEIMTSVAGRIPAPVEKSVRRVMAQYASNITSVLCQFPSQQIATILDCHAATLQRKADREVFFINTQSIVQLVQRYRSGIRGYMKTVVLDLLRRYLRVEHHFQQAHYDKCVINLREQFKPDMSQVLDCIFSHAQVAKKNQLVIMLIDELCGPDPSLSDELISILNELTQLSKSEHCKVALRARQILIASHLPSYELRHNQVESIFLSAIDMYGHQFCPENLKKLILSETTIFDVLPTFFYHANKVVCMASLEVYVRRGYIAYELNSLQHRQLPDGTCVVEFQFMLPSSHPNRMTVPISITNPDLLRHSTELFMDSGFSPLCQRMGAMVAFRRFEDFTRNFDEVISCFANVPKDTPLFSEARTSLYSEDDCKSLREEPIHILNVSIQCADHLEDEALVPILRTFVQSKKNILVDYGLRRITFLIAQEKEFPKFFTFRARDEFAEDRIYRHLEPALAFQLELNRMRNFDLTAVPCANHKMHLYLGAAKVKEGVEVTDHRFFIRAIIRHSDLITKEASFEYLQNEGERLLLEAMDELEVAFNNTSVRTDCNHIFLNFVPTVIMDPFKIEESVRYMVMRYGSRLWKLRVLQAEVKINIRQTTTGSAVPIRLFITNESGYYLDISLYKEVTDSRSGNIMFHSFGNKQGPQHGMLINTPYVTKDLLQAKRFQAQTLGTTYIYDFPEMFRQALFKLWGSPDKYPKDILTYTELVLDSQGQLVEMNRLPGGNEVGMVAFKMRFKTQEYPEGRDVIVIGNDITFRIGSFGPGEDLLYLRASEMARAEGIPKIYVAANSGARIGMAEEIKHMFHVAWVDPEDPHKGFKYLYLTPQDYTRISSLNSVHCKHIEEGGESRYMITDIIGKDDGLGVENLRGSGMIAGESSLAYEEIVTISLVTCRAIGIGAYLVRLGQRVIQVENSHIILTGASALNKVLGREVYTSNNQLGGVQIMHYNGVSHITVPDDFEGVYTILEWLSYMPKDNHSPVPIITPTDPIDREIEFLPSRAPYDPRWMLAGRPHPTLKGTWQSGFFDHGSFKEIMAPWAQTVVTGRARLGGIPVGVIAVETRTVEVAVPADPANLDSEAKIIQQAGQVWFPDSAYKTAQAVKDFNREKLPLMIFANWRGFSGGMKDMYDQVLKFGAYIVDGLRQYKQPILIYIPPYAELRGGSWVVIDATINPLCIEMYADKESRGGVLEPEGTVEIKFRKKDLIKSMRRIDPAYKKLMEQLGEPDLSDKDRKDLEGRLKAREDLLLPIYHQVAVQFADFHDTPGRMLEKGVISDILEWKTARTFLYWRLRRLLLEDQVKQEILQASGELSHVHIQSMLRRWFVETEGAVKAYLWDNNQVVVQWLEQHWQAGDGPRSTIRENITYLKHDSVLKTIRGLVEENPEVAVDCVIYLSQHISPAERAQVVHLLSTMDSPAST

On to `CC(=O)N[C@@H](C)c1ccc(C2CN(c3ccc(OC4CC4)cc3)C2)cc1` [Example 1.25], for which the IC50 was determined as 0.54 µM. Under `CC(=O)NC(C)Cc1ccc(C2CN(c3cnc(NC4CCC4)nc3)C2)cc1` (stereo not drawn) [Example 1.07] stands 5.63 µM; under `CCCc1cnc(N2CC(c3ccc(CC(C)NC(C)=O)cc3)C2)nc1` (stereo not drawn) [Example 2.02], 3.79 µM; under `COc1ccc(-c2cnc(N3CC(c4ccc([C@H](C)NC(C)=O)cc4)C3)nc2)cc1` [Example 2.08], 0.32 µM. Under `CC(=O)N[C@@H](C)c1ccc(C2CN(c3ncc4nc(-c5ccsc5)oc4n3)C2)cc1` [Example 2.13] stands 0.69 µM; under `C[C@H](NC(=O)c1cncs1)c1ccc(C2CN(c3ccc4c(c3)OCCO4)C2)cc1` [Example 3.57], 1.65 µM.
